Experimental data taken from publication PMC4331650 (Biochimica et Biophysica Acta, 2014).
Substitutions are numbered along the chain they refer to.

What was measured:
Format in all cases: cell-based
CLC-K1/barttin = target: T1, CLC-K1/barttin (Rattus norvegicus, UniProt Q06393); assay: NFA effect on WT CLC-K1/barttin, voltage clamp in Xenopus oocytes
T1 sequence (Q06393 1-687): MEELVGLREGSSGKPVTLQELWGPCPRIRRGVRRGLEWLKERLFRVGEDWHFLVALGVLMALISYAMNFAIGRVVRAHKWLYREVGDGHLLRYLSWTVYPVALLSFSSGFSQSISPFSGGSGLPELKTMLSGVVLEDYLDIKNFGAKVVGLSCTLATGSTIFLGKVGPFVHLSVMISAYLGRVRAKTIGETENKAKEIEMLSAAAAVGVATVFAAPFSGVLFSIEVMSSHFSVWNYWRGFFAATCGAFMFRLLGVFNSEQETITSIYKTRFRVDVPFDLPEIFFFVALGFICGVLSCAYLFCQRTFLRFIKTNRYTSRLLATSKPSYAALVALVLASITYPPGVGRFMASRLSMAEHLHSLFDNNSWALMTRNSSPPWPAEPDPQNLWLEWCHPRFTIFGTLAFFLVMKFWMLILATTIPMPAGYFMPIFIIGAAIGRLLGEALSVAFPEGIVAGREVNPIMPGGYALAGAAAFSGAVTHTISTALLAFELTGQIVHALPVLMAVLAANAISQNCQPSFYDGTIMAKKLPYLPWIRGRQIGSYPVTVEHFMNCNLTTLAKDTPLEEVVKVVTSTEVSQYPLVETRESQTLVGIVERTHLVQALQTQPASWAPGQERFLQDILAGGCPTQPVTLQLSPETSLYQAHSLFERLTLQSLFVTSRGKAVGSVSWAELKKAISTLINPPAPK
T1 sequence (Q8WZ55 1-320 Y98A partner): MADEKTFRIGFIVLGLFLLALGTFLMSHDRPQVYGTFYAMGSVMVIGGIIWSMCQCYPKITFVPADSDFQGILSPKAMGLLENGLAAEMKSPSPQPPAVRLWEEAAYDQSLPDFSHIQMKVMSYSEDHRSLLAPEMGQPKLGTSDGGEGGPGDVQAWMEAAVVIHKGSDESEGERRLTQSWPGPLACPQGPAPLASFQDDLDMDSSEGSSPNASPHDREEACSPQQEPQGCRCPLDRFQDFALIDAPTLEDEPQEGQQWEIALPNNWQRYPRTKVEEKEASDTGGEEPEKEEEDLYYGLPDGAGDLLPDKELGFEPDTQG

F256A CLC-K1 = target: T2, F256A CLC-K1 (Rattus norvegicus, UniProt Q06393, F256A); assay: NFA effect on F256A CLC-K1 without barttin, voltage clamp in Xenopus oocytes; conditions: expressed without barttin
T2 sequence (Q06393 1-687 F256A): T1 sequence (Q06393 1-687) with F256A

N257A CLC-K1 = target: T3, N257A CLC-K1 (Rattus norvegicus, UniProt Q06393, N257A); assay: NFA effect on N257A CLC-K1 without barttin, voltage clamp in Xenopus oocytes; conditions: 200 μM NFA
T3 sequence (Q06393 1-687 N257A): T1 sequence (Q06393 1-687) with N257A

O=C(O)c1cccnc1Nc1cccc(C(F)(F)F)c1 [NFA, niflumic acid]
currents relative to control conditions (CLC-K1/barttin; 10 μM NFA): about 80% | currents relative to control conditions (CLC-K1/barttin; 200 μM NFA): ~45% | effect of NFA on currents (F256A CLC-K1): no potentiation | sensitivity to NFA compared with WT (N257A CLC-K1): only weakly more sensitive
